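Five concentrations, 48 hours, 96-well plates. At the GI50, growth is halved. TGI: concentration producing complete growth inhibition.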
Experiments:
Assay in all cases: growth of human tumour cells (NCI), 48 h
OVCAR-8 ovarian = system: OVCAR-8 ovarian
UACC-62 melanoma = system: UACC-62 melanoma
IGROV1 ovarian = system: IGROV1 ovarian
HCT-15 colon = system: HCT-15 colon
RPMI-8226 leukemia = system: RPMI-8226 leukemia
SK-OV-3 ovarian = system: SK-OV-3 ovarian
DU-145 prostate = system: DU-145 prostate
NCI-H226 lung = system: NCI-H226 lung
MDA-MB-231 breast = system: MDA-MB-231 breast
SNB-75 CNS = system: SNB-75 CNS

Row | Compound | GI50 (OVCAR-8 ovarian) [µM] | TGI (OVCAR-8 ovarian) [µM] | GI50 (UACC-62 melanoma) [µM] | TGI (UACC-62 melanoma) [µM] | GI50 (IGROV1 ovarian) [µM] | TGI (IGROV1 ovarian) [µM] | GI50 (HCT-15 colon) [µM] | TGI (HCT-15 colon) [µM] | GI50 (RPMI-8226 leukemia) [µM] | TGI (RPMI-8226 leukemia) [µM] | GI50 (SK-OV-3 ovarian) [µM] | TGI (SK-OV-3 ovarian) [µM] | GI50 (DU-145 prostate) [µM] | TGI (DU-145 prostate) [µM] | GI50 (NCI-H226 lung) [µM] | TGI (NCI-H226 lung) [µM] | GI50 (MDA-MB-231 breast) [µM] | TGI (MDA-MB-231 breast) [µM] | GI50 (SNB-75 CNS) [µM] | TGI (SNB-75 CNS) [µM]
1 | C=CC1=C[C@@H]2[C@@H]3O[C@]4(CC[C@H](O4)[C@@H](C)C[C@@H](O)C3=O)C[C@H](O)C3=NCC[C@@]32CC1 | < 0.00333 | 0.044 | < 0.00333 | 0.00412 | < 0.00333 | 0.00337 | < 0.00333 | < 0.00333 | < 0.00333 | < 0.00333 | < 0.00333 | 0.00795 | < 0.00333 | 0.00335 | < 0.00333 | < 0.00333 | < 0.00333 | 0.0121 | < 0.00333 | < 0.00333
2 | CC(=O)NCCSC(=O)c1ccccc1 | – | 0.81 | – | 0.0786 | – | > 29.6 | – | 1.04 | – | 2.26 | – | 14.8 | – | 2.62 | – | 0.413 | – | 7.71 | – | 12.4
3 | NC(=O)c1cc([N+](=O)[O-])c(Cl)c([N+](=O)[O-])c1 | 1.87 | 3.63 | 2.43 | 7.13 | 3.01 | 7.9 | 1.98 | 3.92 | 2.32 | 5.7 | 16.9 | 30.6 | 2.15 | 3.92 | 1.68 | 3.22 | 1.96 | 3.84 | 4.63 | 17.8
4 | Cn1c(=O)c(Oc2ccc(F)cc2F)cc2cnc(NC(CO)CO)nc21 | > 25 | > 25 | > 25 | > 25 | > 25 | > 25 | > 25 | > 25 | > 25 | > 25 | > 25 | > 25 | > 25 | > 25 | > 25 | > 25 | > 25 | > 25 | > 25 | > 25
5 | N=c1c2c(-c3ccccc3)c(-c3ccccc3)n(Cc3ccccc3)c2ncn1CCCO | 0.739 | 22.2 | 1.91 | 14.4 | 2.08 | 28.1 | 0.696 | 15.5 | 2.86 | 16 | 4.18 | 17.9 | 3.14 | 19.1 | 0.817 | 12.9 | 1.4 | 8.33 | 1.38 | 8.43
6 | CN(c1ccc(NC(=O)Nc2ccc(OC(F)(F)F)cc2)cc1)c1ccnc(Nc2cccc(S(N)(=O)=O)c2)n1 | 3.07 | 7.17 | 3.02 | 7.13 | 1.73 | 7.45 | 5.34 | 15.3 | 2.7 | 10.1 | 4.65 | 8.96 | 3.26 | 6.46 | 3.28 | 9.51 | 4.92 | 15.1 | 2.38 | 6.61
7 | C[C@]12CC[C@@H]3c4ccc(O)cc4CC[C@H]3[C@@H]1CC[C@@H]2NS(=O)(=O)c1cccc(C(F)(F)F)c1 | 4.65 | 19.3 | 2.66 | 10.7 | 5.19 | 18 | 2.17 | 5.23 | 3.26 | 14.2 | 4.78 | 15.3 | 5.83 | 18.4 | 3.88 | 17.2 | 2.39 | 6.77 | 2.98 | 15.5
8 | COc1ccc2c(c1)c(-c1nc(-c3c[nH]c4ncccc34)cs1)cn2CCCCN1CCOCC1 | – | – | 1.87 | 3.93 | 2.48 | 8.28 | 1.96 | 4.14 | 1.99 | 4.72 | 2.37 | 5.27 | 3.07 | 9.76 | 2.46 | 9.91 | 1.7 | 3.5 | 1.31 | 2.85
9 | Cc1nn(-c2ccccc2)c2c1CC(=O)Nc1ccccc1-2 | – | – | 0.158 | 73.4 | 0.397 | > 100 | 0.145 | > 100 | 0.0826 | 0.456 | 0.332 | 43.8 | 0.355 | > 100 | 0.465 | > 100 | 0.578 | > 100 | 0.21 | –

Reference: PubChem BioAssay (NCI)
